From publication PMC7180948, “New Insights into 4-Anilinoquinazolines as Inhibitors of Cardiac Troponin I–Interacting Kinase (TNNi3K)” (Molecules, 2020)

Key:
Assay in all cases: biochemical
Design in all cases: KINOMEscan competition binding panel (Eurofins DiscoverX), single concentration, % inhibition
Details in all cases: read-out: 7 at 1 µM % inhibition
CDK4-cyclinD1 = molecular target: T1, CDK4-cyclinD1 (Homo sapiens, UniProt P11802)
T1 construct: cyclinD1
How it was run: (§1)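 A single 1 µM concentration of each compound is screened across upwards of 400 human kinases using the KINOMEscan format.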

CDK8 = CDK8 (Homo sapiens, UniProt P49336)
Chain of CDK8 (P49336 whole entry): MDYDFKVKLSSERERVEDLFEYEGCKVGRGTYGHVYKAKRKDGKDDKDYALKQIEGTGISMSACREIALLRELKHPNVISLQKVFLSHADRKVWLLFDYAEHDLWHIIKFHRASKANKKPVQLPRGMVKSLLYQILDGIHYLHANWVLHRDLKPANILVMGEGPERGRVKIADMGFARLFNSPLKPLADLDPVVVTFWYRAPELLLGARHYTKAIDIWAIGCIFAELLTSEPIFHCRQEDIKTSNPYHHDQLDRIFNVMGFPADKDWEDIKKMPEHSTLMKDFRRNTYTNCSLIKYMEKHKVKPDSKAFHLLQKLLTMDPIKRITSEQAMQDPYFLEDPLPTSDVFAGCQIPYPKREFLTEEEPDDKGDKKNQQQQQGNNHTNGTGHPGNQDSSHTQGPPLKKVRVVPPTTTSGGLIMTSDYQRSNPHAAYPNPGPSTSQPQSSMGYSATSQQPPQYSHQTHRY
How it was run: as §1

CDK9 = CDK9 (Homo sapiens, UniProt P50750)
How it was run: as §1

DAPK3 = DAPK3 (Homo sapiens, UniProt O43293)
How it was run: as §1

EPHA8 = EPHA8 (Homo sapiens, UniProt P29322)
How it was run: as §1

GRK2 = GRK2 (Homo sapiens, UniProt P25098)
Chain of GRK2 (P25098 whole entry): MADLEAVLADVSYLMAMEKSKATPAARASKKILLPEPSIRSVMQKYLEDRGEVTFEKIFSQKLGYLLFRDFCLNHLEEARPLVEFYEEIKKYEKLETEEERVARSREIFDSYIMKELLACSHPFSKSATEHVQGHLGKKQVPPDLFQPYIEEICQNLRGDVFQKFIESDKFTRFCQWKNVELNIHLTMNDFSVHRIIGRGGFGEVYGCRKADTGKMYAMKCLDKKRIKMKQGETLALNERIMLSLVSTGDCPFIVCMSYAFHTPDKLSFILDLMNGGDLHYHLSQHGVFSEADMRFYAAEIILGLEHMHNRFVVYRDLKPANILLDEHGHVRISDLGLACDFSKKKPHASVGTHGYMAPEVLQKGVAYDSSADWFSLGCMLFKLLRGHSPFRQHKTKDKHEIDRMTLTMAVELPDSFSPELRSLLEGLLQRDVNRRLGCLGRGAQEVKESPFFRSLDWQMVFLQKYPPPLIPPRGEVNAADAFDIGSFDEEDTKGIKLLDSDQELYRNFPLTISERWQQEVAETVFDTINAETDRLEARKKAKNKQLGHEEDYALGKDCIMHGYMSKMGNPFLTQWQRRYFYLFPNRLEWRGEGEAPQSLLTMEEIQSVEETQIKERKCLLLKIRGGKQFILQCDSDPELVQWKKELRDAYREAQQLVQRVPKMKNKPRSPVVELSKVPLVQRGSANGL
How it was run: as §1

IGF1R = IGF1R (Homo sapiens, UniProt P08069)
How it was run: as §1

JNK1 = molecular target: T2, JNK1 (Homo sapiens, UniProt P45983)
T2 construct: gene MAPK8
How it was run: as §1

KIT(D816V) = KIT(D816V) (Homo sapiens, UniProt P10721, D816V)
How it was run: as §1

LIMK2 = LIMK2 (Homo sapiens, UniProt P53671)
How it was run: as §1

MAK = MAK (Homo sapiens, UniProt P20794)
How it was run: as §1

MAP4K4 = MAP4K4 (Homo sapiens, UniProt O95819)
Chain of MAP4K4 (O95819 whole entry): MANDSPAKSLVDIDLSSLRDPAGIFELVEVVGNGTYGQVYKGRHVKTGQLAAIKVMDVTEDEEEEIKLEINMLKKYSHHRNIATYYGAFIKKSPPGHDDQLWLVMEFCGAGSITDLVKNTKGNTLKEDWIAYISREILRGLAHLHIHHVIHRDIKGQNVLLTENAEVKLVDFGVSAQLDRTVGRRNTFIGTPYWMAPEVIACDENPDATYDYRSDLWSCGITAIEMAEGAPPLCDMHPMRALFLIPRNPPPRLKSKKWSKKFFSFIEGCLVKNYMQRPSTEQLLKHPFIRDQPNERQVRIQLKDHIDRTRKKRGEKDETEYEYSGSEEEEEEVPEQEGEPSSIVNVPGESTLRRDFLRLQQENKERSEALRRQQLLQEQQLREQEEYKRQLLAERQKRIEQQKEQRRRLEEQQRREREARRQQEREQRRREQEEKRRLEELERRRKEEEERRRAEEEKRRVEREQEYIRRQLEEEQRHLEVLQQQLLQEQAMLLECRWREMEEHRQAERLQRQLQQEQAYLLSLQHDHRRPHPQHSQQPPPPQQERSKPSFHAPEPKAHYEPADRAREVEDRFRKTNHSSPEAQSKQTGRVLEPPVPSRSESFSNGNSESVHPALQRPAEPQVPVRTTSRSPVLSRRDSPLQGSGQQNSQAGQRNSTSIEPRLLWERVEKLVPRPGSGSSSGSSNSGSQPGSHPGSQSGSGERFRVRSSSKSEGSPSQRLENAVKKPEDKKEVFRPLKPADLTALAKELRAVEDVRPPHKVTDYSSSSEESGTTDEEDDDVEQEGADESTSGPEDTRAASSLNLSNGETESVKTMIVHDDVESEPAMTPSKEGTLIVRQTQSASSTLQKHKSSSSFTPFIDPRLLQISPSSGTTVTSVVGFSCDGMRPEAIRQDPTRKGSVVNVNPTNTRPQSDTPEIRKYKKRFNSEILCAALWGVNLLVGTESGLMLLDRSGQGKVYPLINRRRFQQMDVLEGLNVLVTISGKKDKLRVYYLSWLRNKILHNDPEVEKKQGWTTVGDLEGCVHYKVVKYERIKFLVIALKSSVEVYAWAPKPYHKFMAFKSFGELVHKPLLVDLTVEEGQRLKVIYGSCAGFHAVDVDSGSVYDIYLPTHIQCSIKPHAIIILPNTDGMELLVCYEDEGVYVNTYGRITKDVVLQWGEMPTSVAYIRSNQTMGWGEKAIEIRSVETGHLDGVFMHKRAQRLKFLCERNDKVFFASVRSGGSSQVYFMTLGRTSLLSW
How it was run: as §1

MKK7 = molecular target: T3, MKK7 (Homo sapiens, UniProt O14733)
T3 construct: gene MAP2K7
How it was run: as §1

MKNK1 = MKNK1 (Homo sapiens, UniProt Q9BUB5)
How it was run: as §1

MYLK4 = MYLK4 (Homo sapiens, UniProt Q86YV6)
How it was run: as §1

PAK2 = PAK2 (Homo sapiens, UniProt Q13177)
How it was run: as §1

PDGFRA = PDGFRA (Homo sapiens, UniProt P16234)
How it was run: as §1

PIK3CB = PIK3CB (Homo sapiens, UniProt P42338)
Chain of PIK3CB (P42338 whole entry): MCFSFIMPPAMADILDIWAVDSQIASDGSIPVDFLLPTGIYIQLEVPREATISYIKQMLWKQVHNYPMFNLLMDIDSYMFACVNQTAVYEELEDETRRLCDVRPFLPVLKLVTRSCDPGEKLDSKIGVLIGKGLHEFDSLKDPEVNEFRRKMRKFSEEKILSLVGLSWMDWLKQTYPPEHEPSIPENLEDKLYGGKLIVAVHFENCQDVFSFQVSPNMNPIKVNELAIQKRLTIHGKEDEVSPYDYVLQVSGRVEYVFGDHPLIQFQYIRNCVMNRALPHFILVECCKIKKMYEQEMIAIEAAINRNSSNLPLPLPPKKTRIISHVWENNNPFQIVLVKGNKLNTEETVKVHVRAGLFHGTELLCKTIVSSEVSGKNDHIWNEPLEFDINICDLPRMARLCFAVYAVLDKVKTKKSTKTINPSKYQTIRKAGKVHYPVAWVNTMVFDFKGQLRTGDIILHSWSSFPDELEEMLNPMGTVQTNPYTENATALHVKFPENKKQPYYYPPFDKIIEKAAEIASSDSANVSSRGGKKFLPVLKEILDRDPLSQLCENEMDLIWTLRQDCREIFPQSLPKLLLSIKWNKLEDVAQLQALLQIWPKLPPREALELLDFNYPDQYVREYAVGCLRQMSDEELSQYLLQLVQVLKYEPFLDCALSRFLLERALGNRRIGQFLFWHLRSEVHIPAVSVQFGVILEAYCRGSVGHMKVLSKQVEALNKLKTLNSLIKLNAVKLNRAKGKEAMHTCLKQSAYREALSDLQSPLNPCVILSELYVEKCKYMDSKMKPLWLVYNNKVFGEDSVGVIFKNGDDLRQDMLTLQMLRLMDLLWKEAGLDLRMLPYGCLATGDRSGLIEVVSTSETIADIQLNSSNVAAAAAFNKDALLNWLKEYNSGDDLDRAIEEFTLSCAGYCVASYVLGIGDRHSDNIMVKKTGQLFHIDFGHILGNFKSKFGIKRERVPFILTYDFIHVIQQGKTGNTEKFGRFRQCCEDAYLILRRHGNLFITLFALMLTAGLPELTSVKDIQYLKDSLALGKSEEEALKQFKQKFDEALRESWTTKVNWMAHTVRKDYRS
How it was run: as §1

PLK2 = PLK2 (Homo sapiens, UniProt Q9NYY3)
How it was run: as §1

PRKG1 = PRKG1 (Homo sapiens, UniProt Q13976)
How it was run: as §1

ROCK2 = ROCK2 (Homo sapiens, UniProt O75116)
Chain of ROCK2 (O75116 whole entry): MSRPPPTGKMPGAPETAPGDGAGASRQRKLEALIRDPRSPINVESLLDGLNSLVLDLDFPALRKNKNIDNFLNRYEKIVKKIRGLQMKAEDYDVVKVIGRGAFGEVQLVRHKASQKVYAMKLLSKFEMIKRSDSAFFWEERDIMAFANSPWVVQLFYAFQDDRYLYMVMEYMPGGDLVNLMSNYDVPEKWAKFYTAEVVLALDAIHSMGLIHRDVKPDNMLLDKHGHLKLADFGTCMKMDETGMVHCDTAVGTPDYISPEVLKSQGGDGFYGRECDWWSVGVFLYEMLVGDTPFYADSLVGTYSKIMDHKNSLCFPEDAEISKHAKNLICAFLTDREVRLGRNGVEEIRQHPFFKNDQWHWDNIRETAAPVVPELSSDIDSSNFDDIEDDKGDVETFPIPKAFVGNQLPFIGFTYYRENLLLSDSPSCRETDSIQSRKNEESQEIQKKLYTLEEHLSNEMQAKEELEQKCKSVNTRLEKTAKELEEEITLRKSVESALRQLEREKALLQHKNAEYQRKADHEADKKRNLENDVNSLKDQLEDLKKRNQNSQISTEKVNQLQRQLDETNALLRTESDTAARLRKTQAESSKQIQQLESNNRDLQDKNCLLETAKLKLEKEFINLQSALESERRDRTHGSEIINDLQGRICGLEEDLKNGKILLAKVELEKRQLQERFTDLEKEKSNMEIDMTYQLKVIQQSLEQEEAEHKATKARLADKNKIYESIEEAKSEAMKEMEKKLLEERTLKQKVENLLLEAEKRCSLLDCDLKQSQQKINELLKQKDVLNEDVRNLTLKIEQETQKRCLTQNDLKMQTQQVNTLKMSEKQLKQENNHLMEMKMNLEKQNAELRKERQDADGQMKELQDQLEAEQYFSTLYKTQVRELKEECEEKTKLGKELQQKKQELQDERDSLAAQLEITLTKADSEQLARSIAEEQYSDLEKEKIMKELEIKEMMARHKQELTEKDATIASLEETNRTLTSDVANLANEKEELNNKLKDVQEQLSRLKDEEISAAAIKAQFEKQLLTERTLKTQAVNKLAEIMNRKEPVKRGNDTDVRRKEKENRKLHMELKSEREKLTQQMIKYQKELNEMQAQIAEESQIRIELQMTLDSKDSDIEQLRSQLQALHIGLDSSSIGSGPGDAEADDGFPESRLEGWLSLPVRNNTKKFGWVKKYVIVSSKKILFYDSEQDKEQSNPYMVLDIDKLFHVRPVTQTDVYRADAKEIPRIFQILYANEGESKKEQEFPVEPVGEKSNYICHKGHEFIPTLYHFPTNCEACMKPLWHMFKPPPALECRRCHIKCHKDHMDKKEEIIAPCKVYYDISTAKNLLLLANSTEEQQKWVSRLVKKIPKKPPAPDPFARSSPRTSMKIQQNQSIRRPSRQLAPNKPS
How it was run: as §1

[1] = molecular target: T4, RSK4(Kin.Dom.2-C-terminal) (Homo sapiens, UniProt Q9UK32)
T4 construct: gene RPS6KA6; Kin.Dom.2-C-terminal
How it was run: as §1

TAOK1 = TAOK1 (Homo sapiens, UniProt Q7L7X3)
How it was run: as §1

TLK1 = TLK1 (Homo sapiens, UniProt Q9UKI8)
How it was run: as §1

Work on `CNS(=O)(=O)c1ccc(N(C)C)c(Nc2ncnc3cc(OC)c(OC)cc23)c1` [compound 7, 3-((6,7-dimethoxyquinazolin-4-yl)amino)-4-(dimethylamino)-N-methylbenzenesulfonamide] yielded an inhibition at 1 µM (CDK4-cyclinD1) of 20%, an inhibition at 1 µM (CDK8) of 0% and an inhibition at 1 µM (CDK9) of 0%. It also gave an inhibition at 1 µM (DAPK3) of 9%, an inhibition at 1 µM (EPHA8) of 0% and an inhibition at 1 µM (GRK2) of 65%. For the same molecule, the inhibition at 1 µM (IGF1R) was 0%, the inhibition at 1 µM (JNK1) was 8% and the inhibition at 1 µM (KIT(D816V)) was 91.7%. It also gave an inhibition at 1 µM (LIMK2) of 0%, an inhibition at 1 µM (MAK) of 0% and an inhibition at 1 µM (MAP4K4) of 0%. For the same molecule, the inhibition at 1 µM (MKK7) was 42%, the inhibition at 1 µM (MKNK1) was 10% and the inhibition at 1 µM (MYLK4) was 0%. The inhibition at 1 µM (PAK2) was 0%, the inhibition at 1 µM (PDGFRA) was 69% and the inhibition at 1 µM (PIK3CB) was 2%. It also gave an inhibition at 1 µM (PLK2) of 13%, an inhibition at 1 µM (PRKG1) of 0% and an inhibition at 1 µM (ROCK2) of 0%. For the same molecule, the inhibition at 1 µM [1] was 24%, the inhibition at 1 µM (TAOK1) was 25% and the inhibition at 1 µM (TLK1) was 0%.
